Test results taken from US10501516B2, “Peptide compound” (TAKEDA PHARMACEUTICAL COMPANY LIMITED, priority 2016, dated 2019).
Square brackets hold non-standard residues; d marks the D form. Side chains are listed from the residue outwards. Peptide text beside a SMILES is read from it. * marks the point of attachment. C18 diacid = O=C(O)CCCCCCCCCCCCCCCCC(=O)*; NMeY = CN[C@@H](Cc1ccc(O)cc1)C(=O)O; Palmitoyl = CCCCCCCCCCCCCCCC(=O)*; αMeF = C[C@](N)(Cc1ccccc1)C(=O)O; Iva = CC[C@](C)(N)C(=O)O; Aib = CC(C)(N)C(=O)O

What was measured:
male C57BL/6J mouse = test: Evaluation of feeding suppressive action in mice; assay type: in vivo; details: 30 nmol/kg s.c. once a day for 3 days; 3-days cumulative food consumption vs solvent control
In short: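 Male C57BL/6J mice, 8-9 weeks, ad libitum fed, given compound (30 or 100 nmol/2 mL in 10% DMSO saline) s.c. at 2 mL/kg once daily for 3 days. Cumulative 3-day food consumption measured by weighing; suppression rate (%) calculated relative to vehicle controls.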

human NPY2R = molecular target: T1, human NPY2R (Homo sapiens, UniProt P49146); test: Reporter assay of human NPY2R gene (agonist activity, decrease in intracellular cAMP as index); assay type: cell-based; details: Cre-luc reporter, hNPY2R CHO-K1 cells, forskolin 1.2 μM, 4 hours; read-out: Agonist activity (EC50) hY2R
T1 construct: expressed in transfected cells; host or cells: CHO-K1 Cre-luc reporter cells (pAKKO1114/hNPY2R#481 No. 88 cells)
T1 sequence (P49146 1-381): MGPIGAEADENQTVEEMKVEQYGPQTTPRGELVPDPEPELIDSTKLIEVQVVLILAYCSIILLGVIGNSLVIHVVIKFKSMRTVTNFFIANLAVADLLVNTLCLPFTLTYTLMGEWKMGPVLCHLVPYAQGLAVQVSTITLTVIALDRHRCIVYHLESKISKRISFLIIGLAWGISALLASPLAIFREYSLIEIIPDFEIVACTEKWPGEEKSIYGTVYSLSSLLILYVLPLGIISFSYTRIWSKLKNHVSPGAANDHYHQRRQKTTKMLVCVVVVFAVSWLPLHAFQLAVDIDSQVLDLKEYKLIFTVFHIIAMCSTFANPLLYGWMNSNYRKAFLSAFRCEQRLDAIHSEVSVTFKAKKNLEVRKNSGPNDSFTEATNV
Source text: (§1) Evaluation of Agonist Activity Against Human NPY2R, Human GIPR, and Human GLP-1R Using Change in Intracellular cAMP Concentration as Index
The human NPY2R gene having a sequence identical to the sequence of GenBank Accession No. AC104407 was cloned into pAKKO1114 vector to prepare hNPY2R/pAKKO1114. Next, pGL4.29 (Promega) was introduced to CHO-K1 cells, which were then screened with hygromycin to construct Cre-luc reporter cells. These cells were cotransfected with hNPY2R/pAKKO1114 and pcDNA3.1 (Life Technologies Corp.), and the cells were screened with geneticin. Next, a cell line induced to express luciferase, i.e., pAKKO1114/hNPY2R#481 No. 88 cells, were selected from the obtained transformants by the addition of human PYY (3-36).
The pAKKO1114/hNPY2R#481 No. 88 cells were inoculated at a cell density of 25 μL/well (5,000 cells/well) to a 384-well white plate (Corning, 3570), and cultured overnight in Ham F12 medium containing 10% fetal bovine serum, 100 U/mL penicillin and 100 μg/mL streptomycin in a CO2 incubator of 37° C. On the next day, the medium was removed, and an assay medium (Ham F12 medium containing 0.1% BSA, 100 U/mL penicillin and 100 μg/mL streptomycin) containing forskolin (final concentration: 1.2 μM) was added at a concentration of 25 μL/well to the cells. Next, an assay medium containing a test compound was added at a concentration of 5 μL/well to the cells, and the resultant cells were incubated for 4 hours in a CO2 incubator of 37° C. to give the final concentration of 1 μM. SteadyGlo (Promega) was added thereto at a concentration of 30 μL/well, and the mixture was left standing for 20 minutes with light shielded. The luciferase activity was measured using a plate reader Envision (PerkinElmer). The luciferase activity from the addition of DMSO was defined as 100%, and the luciferase activity from the addition of 1 μM human PYY(3-36) instead of the test compound was defined as 0%. The NPY2R agonist activity was calculated with a decrease in intracellular cAMP concentration as an index.

human GIPR = molecular target: T2, human GIPR (Homo sapiens, UniProt P48546); test: Reporter assay of human GIPR gene (agonist activity, intracellular cAMP as index); assay type: cell-based; details: Cre-luc reporter, hGIPR/CHO-K1 cells, 4 hours
T2 construct: expressed in transfected cells; host or cells: CHO-K1 Cre-luc reporter cells (hGIPR/CHO-K1, also called hGIPR/CRE-LUC/CHO-K1)
T2 sequence (P48546 22-466): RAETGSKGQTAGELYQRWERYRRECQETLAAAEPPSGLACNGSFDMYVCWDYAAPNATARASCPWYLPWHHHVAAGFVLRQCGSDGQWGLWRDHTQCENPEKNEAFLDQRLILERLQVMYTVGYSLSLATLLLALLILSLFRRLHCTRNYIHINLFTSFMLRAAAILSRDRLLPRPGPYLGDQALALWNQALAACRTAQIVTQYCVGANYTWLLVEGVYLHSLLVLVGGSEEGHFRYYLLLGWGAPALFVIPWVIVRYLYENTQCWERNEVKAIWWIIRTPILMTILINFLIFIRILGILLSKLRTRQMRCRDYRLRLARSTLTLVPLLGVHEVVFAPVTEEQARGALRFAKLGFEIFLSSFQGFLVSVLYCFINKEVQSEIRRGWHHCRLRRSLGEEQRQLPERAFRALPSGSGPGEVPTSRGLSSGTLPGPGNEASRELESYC
Source text: as §1
The human GIPR gene having a sequence identical to the sequence of GenBank Accession No. U39231 was cloned into pMSRα-neo vector to prepare hGIPR/pMSRα-neo. This vector was introduced to the Cre-luc reporter cells obtained in (1) to obtain transformants. Next, a cell line induced to express luciferase, i.e., hGIPR/CHO-K1 cells, were selected from the obtained transformants by the addition of GIP.
The hGIPR/CRE-LUC/CHO-K1 cells or the hGLP-1R/Crel cells were inoculated at a cell density of 25 μL/well (5,000 cells/well) to a 384-well white plate (Corning, 3570), and cultured overnight in Ham F12 medium containing 10% fetal bovine serum, 100 U/mL penicillin and 100 μg/mL streptomycin in a CO2 incubator of 37° C. On the next day, a medium containing a test compound was added at a concentration of 5 μL/well to the cells, and the resultant cells were incubated for 4 hours in a CO2 incubator of 37° C. to give the final concentration of 1 μM. SteadyGlo (Promega) was added thereto at a concentration of 30 μL/well, and the mixture was shaken with light shielded. After 30 minutes, the luciferase activity was measured using a plate reader Envision (PerkinElmer). For the GIPR agonist activity, the luciferase activity in the presence of 10 μM GIP was defined as 100%, and the luciferase activity from the addition of DMSO instead of the test compound was defined as 0%. The GIPR agonist activity was calculated with a rise in intracellular cAMP concentration as an index.

For CCCCCCCCCCCCCCCC(=O)NCC(=O)NCC(=O)NCC(=O)NCC(=O)NCCCC[C@H](NC(=O)[C@H](CC(=O)O)NC(=O)[C@H](CO)NC(=O)[C@@H](NC(=O)[C@](C)(Cc1ccccc1)NC(=O)[C@@H](NC(=O)CNC(=O)[C@H](CCC(=O)O)NC(=O)C(C)(C)NC(=O)[C@@H](N)Cc1ccc(O)cc1)[C@@H](C)O)[C@@H](C)O)C(=O)NC(C)(C)C(=O)N[C@H](C(=O)NC(C)(C)C(=O)N[C@@H](CC(C)C)C(=O)N[C@@H](CC(=O)O)C(=O)N[C@@H](CCCCN)C(=O)N[C@@H](CCC(N)=O)C(=O)N[C@@H](CCCNC(=N)N)C(=O)N[C@@H](CCC(N)=O)C(=O)N[C@@](C)(CC)C(=O)N[C@@H](CCC(=O)O)C(=O)N[C@@H](Cc1ccccc1)C(=O)N[C@H](C(=O)N[C@@H](CCCNC(=N)N)C(=O)N[C@@H](Cc1c[nH]cn1)C(=O)N[C@@H](CC(C)C)C(=O)N[C@@H](CC(C)C)C(=O)N[C@@H](CC(N)=O)C(=O)N[C@@H](CCCCN)C(=O)NC(C)(C)C(=O)N[C@H](C(=O)N[C@@H](CCCNC(=N)N)C(=O)N[C@@H](CCC(N)=O)C(=O)N[C@@H](CCCNC(=N)N)C(=O)N[C@@H](Cc1ccc(O)cc1)C(N)=O)[C@@H](C)O)C(C)C)[C@@H](C)CC [Example 7] (H-Y[Aib]EGT[αMeF]TSDK([Gly-Gly-Gly-Gly-Palmitoyl])[Aib]I[Aib]LDKQRQ[Iva]EFVRHLLNK[Aib]TRQRY-NH2), the “Rate of feeding suppression (%)” value (male C57BL/6J mouse) was −37.6%, the EC50 (human NPY2R) was 0.1 nM and the EC50 (human GIPR) was 0.068 nM.

In the case of CCCCCCCCCCCCCCCC(=O)NCC(=O)NCC(=O)NCC(=O)NCC(=O)NCCCC[C@H](NC(=O)[C@H](CC(=O)O)NC(=O)[C@H](CO)NC(=O)[C@@H](NC(=O)[C@](C)(Cc1ccccc1)NC(=O)[C@@H](NC(=O)CNC(=O)[C@H](CCC(=O)O)NC(=O)C(C)(C)NC(=O)[C@H](Cc1ccc(O)cc1)NC)[C@@H](C)O)[C@@H](C)O)C(=O)NC(C)(C)C(=O)N[C@H](C(=O)NC(C)(C)C(=O)N[C@@H](CC(C)C)C(=O)N[C@@H](CC(=O)O)C(=O)N[C@@H](CCCCN)C(=O)N[C@@H](CCC(N)=O)C(=O)N[C@@H](CCCNC(=N)N)C(=O)N[C@@H](CCC(N)=O)C(=O)N[C@@](C)(CC)C(=O)N[C@@H](CCC(=O)O)C(=O)N[C@@H](Cc1ccccc1)C(=O)N[C@H](C(=O)N[C@@H](CCCNC(=N)N)C(=O)N[C@@H](Cc1c[nH]cn1)C(=O)N[C@@H](CC(C)C)C(=O)N[C@@H](CC(C)C)C(=O)N[C@@H](CC(N)=O)C(=O)N[C@@H](CCCCN)C(=O)NC(C)(C)C(=O)N[C@H](C(=O)N[C@@H](CCCNC(=N)N)C(=O)N[C@@H](CCC(N)=O)C(=O)N[C@@H](CCCNC(=N)N)C(=O)N[C@@H](Cc1ccc(O)cc1)C(N)=O)[C@@H](C)O)C(C)C)[C@@H](C)CC [Example 9] (H-[NMeY][Aib]EGT[αMeF]TSDK([Gly-Gly-Gly-Gly-Palmitoyl])[Aib]I[Aib]LDKQRQ[Iva]EFVRHLLNK[Aib]TRQRY-NH2), the EC50 (human NPY2R) is reported as 0.1 nM and the EC50 (human GIPR) is reported as 0.068 nM.

CCCCCCCCCCCCCCCC(=O)NCC(=O)NCC(=O)NCC(=O)NCC(=O)NCCCC[C@H](NC(=O)[C@H](CC(=O)O)NC(=O)[C@H](CO)NC(=O)[C@@H](NC(=O)[C@](C)(Cc1ccccc1)NC(=O)[C@@H](NC(=O)CNC(=O)[C@H](CCC(=O)O)NC(=O)C(C)(C)NC(=O)[C@H](Cc1ccc(O)cc1)NC)[C@@H](C)O)[C@@H](C)O)C(=O)N[C@@H](C)C(=O)N[C@H](C(=O)NC(C)(C)C(=O)N[C@@H](CC(C)C)C(=O)N[C@@H](CC(=O)O)C(=O)N[C@@H](CCCCN)C(=O)N[C@@H](CCC(N)=O)C(=O)N[C@@H](CCCNC(=N)N)C(=O)N[C@@H](CCC(N)=O)C(=O)N[C@@](C)(CC)C(=O)N[C@@H](CCC(=O)O)C(=O)N[C@@H](Cc1ccccc1)C(=O)N[C@H](C(=O)N[C@@H](CCCNC(=N)N)C(=O)N[C@@H](Cc1c[nH]cn1)C(=O)N[C@@H](CC(C)C)C(=O)N[C@@H](CC(C)C)C(=O)N[C@@H](CC(N)=O)C(=O)N[C@@H](CCCCN)C(=O)NC(C)(C)C(=O)N[C@H](C(=O)N[C@@H](CCCNC(=N)N)C(=O)N[C@@H](CCC(N)=O)C(=O)N[C@@H](CCCNC(=N)N)C(=O)N[C@@H](Cc1ccc(O)cc1)C(N)=O)[C@@H](C)O)C(C)C)[C@@H](C)CC [Example 13] (H-[NMeY][Aib]EGT[αMeF]TSDK([Gly-Gly-Gly-Gly-Palmitoyl])AI[Aib]LDKQRQ[Iva]EFVRHLLNK[Aib]TRQRY-NH2) was tested, and the “Rate of feeding suppression (%)” value (male C57BL/6J mouse) was −41.0%, the EC50 (human NPY2R) was 0.1 nM and the EC50 (human GIPR) was 0.074 nM.

CC[C@H](C)[C@H](NC(=O)C(C)(C)NC(=O)[C@H](CCCCNC(=O)CNC(=O)CNC(=O)CNC(=O)CNC(=O)CCCCCCCCCCCCCCCCC(=O)O)NC(=O)[C@H](CC(=O)O)NC(=O)[C@H](CO)NC(=O)[C@@H](NC(=O)[C@](C)(Cc1ccccc1)NC(=O)[C@@H](NC(=O)CNC(=O)[C@H](CCC(=O)O)NC(=O)C(C)(C)NC(=O)[C@@H](N)Cc1ccc(O)cc1)[C@@H](C)O)[C@@H](C)O)C(=O)NC(C)(C)C(=O)N[C@@H](CC(C)C)C(=O)N[C@@H](CC(=O)O)C(=O)N[C@@H](CCCCN)C(=O)N[C@@H](CCC(N)=O)C(=O)N[C@@H](C)C(=O)N[C@@H](CCC(N)=O)C(=O)N[C@@](C)(CC)C(=O)N[C@@H](CCC(=O)O)C(=O)N[C@@H](Cc1ccccc1)C(=O)N[C@H](C(=O)N[C@@H](CCCNC(=N)N)C(=O)N[C@@H](Cc1c[nH]cn1)C(=O)N[C@@H](CC(C)C)C(=O)N[C@@H](CC(C)C)C(=O)N[C@@H](CC(N)=O)C(=O)N[C@@H](CCCCN)C(=O)NC(C)(C)C(=O)N[C@H](C(=O)N[C@@H](CCCNC(=N)N)C(=O)N[C@@H](CCC(N)=O)C(=O)N[C@@H](CCCNC(=N)N)C(=O)N[C@@H](Cc1ccc(O)cc1)C(N)=O)[C@@H](C)O)C(C)C [Example 28] (H-Y[Aib]EGT[αMeF]TSDK([Gly-Gly-Gly-Gly-C18 diacid])[Aib]I[Aib]LDKQAQ[Iva]EFVRHLLNK[Aib]TRQRY-NH2) gave an EC50 (human NPY2R) of 2.4 nM and an EC50 (human GIPR) of 0.074 nM.
